Laboratory results: ChEMBL document CHEMBL4837255, “Overcoming the Pregnane X Receptor Liability: Rational Design to Eliminate PXR-Mediated CYP Induction” (ACS Med Chem Lett, 2021)

What was measured:
PXR (NR1I2) = target: T1, PXR (NR1I2) (Homo sapiens, UniProt O75469); assay: Activation of full length human PXR expressed in human HepG2 cells co-expressing luciferase of CYP3A4 promoter transcription assessed as increase of luciferase activity at 50 uM preincubated for 24 hrs followed by addition of luciferase substrate and measured by hPXR Gene reporter assay relative to control; type: ADME, cell-based
T1 sequence (O75469 whole entry): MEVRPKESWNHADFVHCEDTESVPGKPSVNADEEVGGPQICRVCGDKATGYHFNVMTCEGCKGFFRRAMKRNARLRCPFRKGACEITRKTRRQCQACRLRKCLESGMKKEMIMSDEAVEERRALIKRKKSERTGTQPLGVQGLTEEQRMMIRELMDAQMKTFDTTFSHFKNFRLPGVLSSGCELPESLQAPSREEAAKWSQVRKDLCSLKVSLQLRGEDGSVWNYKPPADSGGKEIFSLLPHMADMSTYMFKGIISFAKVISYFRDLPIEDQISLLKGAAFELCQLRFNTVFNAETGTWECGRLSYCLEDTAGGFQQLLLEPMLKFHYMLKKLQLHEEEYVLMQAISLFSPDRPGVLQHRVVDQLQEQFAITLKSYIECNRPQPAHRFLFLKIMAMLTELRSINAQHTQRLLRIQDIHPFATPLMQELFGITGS

[1] = target: T2, Nuclear receptor subfamily 1 group I member 2 (Homo sapiens, UniProt O75469); assay: Activation of full length human PXR expressed in human HepG2 cells co-expressing luciferase of CYP3A4 promoter transcription assessed as increase of luciferase activity preincubated for 24 hrs followed by addition of luciferase substrate and measured by hPXR Gene reporter assay; type: ADME, cell-based
T2 sequence (O75469 whole entry): T1 sequence (O75469 whole entry)

[2] = target: T3, Extracellular calcium-sensing receptor (Mus musculus, UniProt Q9QY96); assay: Antagonist activity at mouse CaSR; type: functional
T3 sequence (Q9QY96 whole entry): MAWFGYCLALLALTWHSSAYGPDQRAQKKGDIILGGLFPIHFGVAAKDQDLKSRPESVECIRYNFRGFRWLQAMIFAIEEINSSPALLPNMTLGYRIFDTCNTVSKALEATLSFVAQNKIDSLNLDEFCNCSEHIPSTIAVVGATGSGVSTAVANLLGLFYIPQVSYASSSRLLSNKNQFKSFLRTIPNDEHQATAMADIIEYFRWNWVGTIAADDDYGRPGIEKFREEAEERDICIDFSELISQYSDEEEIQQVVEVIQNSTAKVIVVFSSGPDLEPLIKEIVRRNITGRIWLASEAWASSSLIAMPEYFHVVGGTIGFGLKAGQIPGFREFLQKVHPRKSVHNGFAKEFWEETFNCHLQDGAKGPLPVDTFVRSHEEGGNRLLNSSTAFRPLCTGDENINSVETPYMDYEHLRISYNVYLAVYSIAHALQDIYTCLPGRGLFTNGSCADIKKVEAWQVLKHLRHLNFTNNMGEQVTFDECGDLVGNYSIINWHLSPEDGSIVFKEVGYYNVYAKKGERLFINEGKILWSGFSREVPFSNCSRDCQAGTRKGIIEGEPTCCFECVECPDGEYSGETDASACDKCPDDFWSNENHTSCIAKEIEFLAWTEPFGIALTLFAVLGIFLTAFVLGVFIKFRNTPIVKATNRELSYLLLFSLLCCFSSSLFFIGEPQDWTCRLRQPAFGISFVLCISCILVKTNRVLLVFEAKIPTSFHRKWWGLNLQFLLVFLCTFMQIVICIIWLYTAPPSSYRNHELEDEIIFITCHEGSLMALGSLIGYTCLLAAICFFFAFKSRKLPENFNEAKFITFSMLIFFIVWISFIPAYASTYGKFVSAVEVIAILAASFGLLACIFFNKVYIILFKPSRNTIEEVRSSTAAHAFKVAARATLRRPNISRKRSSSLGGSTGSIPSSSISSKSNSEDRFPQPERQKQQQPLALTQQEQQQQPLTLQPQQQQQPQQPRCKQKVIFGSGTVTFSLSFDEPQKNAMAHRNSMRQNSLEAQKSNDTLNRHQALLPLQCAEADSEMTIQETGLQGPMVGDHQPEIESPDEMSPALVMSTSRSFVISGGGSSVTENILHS

[3] = AUC (0 to t) in mouse at 300 mg/kg/day, po measured after 1 day; type: ADME, organism-based; parameters: time 1 day, dose 300 mg/kg/day; details: in vivo
[4] = AUC (0 to t) in mouse at 1000 mg/kg/day, po measured after 1 day; type: ADME, organism-based; parameters: time 1 day, dose 1000 mg/kg/day; details: in vivo
[5] = AUC (0 to t) in mouse at 2000 mg/kg/day, po measured after 1 day; type: ADME, organism-based; parameters: time 1 day, dose 2000 mg/kg/day; details: in vivo
[6] = AUC (0 to t) in mouse at 300 mg/kg/day, po measured after 10 days; type: ADME, organism-based; parameters: time 10 day, dose 300 mg/kg/day; details: in vivo
[7] = AUC (0 to t) in mouse at 1000 mg/kg/day, po measured after 10 days; type: ADME, organism-based; parameters: time 10 day, dose 1000 mg/kg/day; details: in vivo
[8] = AUC (0 to t) in mouse at 2000 mg/kg/day, po measured after 10 days; type: ADME, organism-based; parameters: time 10 day, dose 2000 mg/kg/day; details: in vivo
[9] = Cmax in mouse at 300 mg/kg/day, po measured after 1 day; type: ADME, organism-based; parameters: route oral, dose 300 mg/kg/day, time 1 day; details: in vivo
[10] = Cmax in mouse at 1000 mg/kg/day, po measured after 1 day; type: ADME, organism-based; parameters: route oral, dose 1000 mg/kg/day, time 1 day; details: in vivo
[11] = Cmax in mouse at 2000 mg/kg/day, po measured after 1 day; type: ADME, organism-based; parameters: route oral, dose 2000 mg/kg/day, time 1 day; details: in vivo
[12] = Cmax in mouse at 300 mg/kg/day, po measured after 10 days; type: ADME, organism-based; parameters: route oral, time 10 day, dose 300 mg/kg/day; details: in vivo
[13] = Cmax in mouse at 1000 mg/kg/day, po measured after 10 days; type: ADME, organism-based; parameters: route oral, dose 1000 mg/kg/day, time 10 day; details: in vivo
[14] = Cmax in mouse at 2000 mg/kg/day, po measured after 10 days; type: ADME, organism-based; parameters: route oral, time 10 day, dose 2000 mg/kg/day; details: in vivo
[15] = AUC (0 to t) in rat at 300 mg/kg/day measured after 1 day; type: ADME, organism-based; parameters: dose 300 mg/kg/day, time 1 day; details: in vivo
[16] = AUC (0 to t) in rat at 300 mg/kg/day measured after 10 days; type: ADME, organism-based; parameters: time 10 day, dose 300 mg/kg/day; details: in vivo
[17] = Cmax in rat at 300 mg/kg/day measured after 1 day; type: ADME, organism-based; parameters: dose 300 mg/kg/day, time 1 day; details: in vivo
[18] = Cmax in rat at 300 mg/kg/day measured after 10 days; type: ADME, organism-based; parameters: time 10 day, dose 300 mg/kg/day; details: in vivo
CYP3A4 = CYP3A4 (Homo sapiens, UniProt P08684); assay: Induction of CYP3A4 in human hepatocytes; type: ADME, cell-based, Liver
CYP3A4, sequence (P08684 whole entry): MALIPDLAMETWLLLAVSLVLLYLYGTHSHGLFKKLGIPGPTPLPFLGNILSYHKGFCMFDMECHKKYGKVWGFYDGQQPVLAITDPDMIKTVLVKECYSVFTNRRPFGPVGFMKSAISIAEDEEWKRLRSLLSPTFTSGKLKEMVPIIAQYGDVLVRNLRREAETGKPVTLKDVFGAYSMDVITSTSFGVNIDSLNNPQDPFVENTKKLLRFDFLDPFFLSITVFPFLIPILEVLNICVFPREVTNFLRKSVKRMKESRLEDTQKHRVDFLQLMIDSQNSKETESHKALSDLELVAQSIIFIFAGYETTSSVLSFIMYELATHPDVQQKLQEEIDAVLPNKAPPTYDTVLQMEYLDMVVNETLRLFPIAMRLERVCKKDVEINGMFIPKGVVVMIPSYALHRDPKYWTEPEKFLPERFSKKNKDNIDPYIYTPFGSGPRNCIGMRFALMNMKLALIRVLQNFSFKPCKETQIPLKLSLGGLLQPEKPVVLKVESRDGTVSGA

[19] = AUC (0 to t) in rat at 100 mg/kg/day measured after 1 day; type: ADME, organism-based; parameters: time 1 day, dose 100 mg/kg/day; details: in vivo
[20] = AUC (0 to t) in rat at 100 mg/kg/day measured after 10 days; type: ADME, organism-based; parameters: time 10 day, dose 100 mg/kg/day; details: in vivo
[21] = Cmax in rat at 100 mg/kg/day measured after 1 day; type: ADME, organism-based; parameters: dose 100 mg/kg/day, time 1 day; details: in vivo
[22] = Cmax in rat at 100 mg/kg/day measured after 10 days; type: ADME, organism-based; parameters: time 10 day, dose 100 mg/kg/day; details: in vivo
[23] = target: T4, Extracellular calcium-sensing receptor (Homo sapiens, UniProt P41180); assay: Antagonist activity at human CaSR in human HEK293 cells measured after 5 mins by FLIPR assay; type: functional, cell-based
T4 sequence (P41180 whole entry): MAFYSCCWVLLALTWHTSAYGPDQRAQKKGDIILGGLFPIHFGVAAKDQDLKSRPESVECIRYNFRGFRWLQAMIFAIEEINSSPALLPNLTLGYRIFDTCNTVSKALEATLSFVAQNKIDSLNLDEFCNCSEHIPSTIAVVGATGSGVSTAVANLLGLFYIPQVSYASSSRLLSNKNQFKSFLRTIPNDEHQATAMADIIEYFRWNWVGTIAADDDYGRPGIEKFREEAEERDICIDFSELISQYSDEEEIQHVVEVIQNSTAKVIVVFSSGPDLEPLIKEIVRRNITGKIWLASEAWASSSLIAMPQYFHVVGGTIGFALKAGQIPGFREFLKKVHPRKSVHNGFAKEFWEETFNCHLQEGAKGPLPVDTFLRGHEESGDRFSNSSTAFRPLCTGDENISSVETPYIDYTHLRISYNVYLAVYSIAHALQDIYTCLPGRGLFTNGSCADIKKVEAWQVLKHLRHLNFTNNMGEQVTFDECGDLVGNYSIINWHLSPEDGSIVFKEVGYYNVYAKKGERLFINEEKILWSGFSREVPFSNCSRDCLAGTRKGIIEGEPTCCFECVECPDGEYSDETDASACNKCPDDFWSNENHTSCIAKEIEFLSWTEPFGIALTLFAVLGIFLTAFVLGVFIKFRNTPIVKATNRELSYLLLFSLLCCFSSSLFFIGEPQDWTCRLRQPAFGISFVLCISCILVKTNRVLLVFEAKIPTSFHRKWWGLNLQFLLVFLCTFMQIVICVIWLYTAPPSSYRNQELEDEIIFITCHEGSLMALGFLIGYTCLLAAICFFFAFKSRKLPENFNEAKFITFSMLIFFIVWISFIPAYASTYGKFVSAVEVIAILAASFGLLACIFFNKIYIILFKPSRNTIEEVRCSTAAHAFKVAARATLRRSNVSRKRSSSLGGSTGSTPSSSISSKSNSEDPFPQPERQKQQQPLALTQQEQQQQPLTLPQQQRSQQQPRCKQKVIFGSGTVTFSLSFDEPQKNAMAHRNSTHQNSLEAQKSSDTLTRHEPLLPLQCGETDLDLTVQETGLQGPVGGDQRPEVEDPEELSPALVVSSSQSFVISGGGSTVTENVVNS

With `Cc1ncc(-c2c(C)nc(-c3cccc(F)c3O)n(CCc3ccccc3)c2=O)s1` the Emax at 24 h, 50 µM (PXR (NR1I2)) was 40% and the EC50 [1] was > 10 µM.
Work on `Cc1ccc(-c2nc(CCc3ccccc3)c(-c3cccc(F)c3O)nc2C)s1` yielded an Emax at 24 h, 50 µM (PXR (NR1I2)) of 110% and an EC50 [1] of 3.2 µM.
In the case of `Cc1ccc(-c2c(C)nc(-c3cccc(F)c3O)n(CCc3ccccc3)c2=O)s1`, the IC50 [2] is reported as 51 nM, the Emax at 24 h, 50 µM (PXR (NR1I2)) is reported as 122% and the EC50 [1] is reported as 2.5 µM. For the same compound, the AUC(0-t) at 24 h [3] was 2880 ng·h/mL, the AUC(0-t) at 24 h [4] was 10800 ng·h/mL and the AUC(0-t) at 24 h [5] was 15100 ng·h/mL. It also gave an AUC(0-t) at 240 h [6] of 1260 ng·h/mL, an AUC(0-t) at 240 h [7] of 2850 ng·h/mL and an AUC(0-t) at 240 h [8] of 1580 ng·h/mL. It also gave a Cmax [9] of 980 ng/mL, a Cmax [10] of 2960 ng/mL and a Cmax [11] of 3600 ng/mL. The Cmax [12] was 820 ng/mL, the Cmax [13] was 680 ng/mL and the Cmax [14] was 480 ng/mL. For the same compound, the AUC(0-t) at 24 h [15] was 2500 ng·h/mL, the AUC(0-t) at 240 h [16] was 1800 ng·h/mL and the Cmax [17] was 330 ng/mL. The Cmax [18] was 360 ng/mL and the Emax (CYP3A4) was 10%.
Work on `Cc1nc(-c2cccc(F)c2O)n(CCc2ccccc2)c(=O)c1-c1ccc(-c2ccccc2)s1` yielded an Emax at 24 h, 50 µM (PXR (NR1I2)) of 60% and an EC50 [1] of 8 µM.
With `Cc1nc(-c2cccc(F)c2O)n(CCc2ccccc2)c(=O)c1Cc1ccccc1` the Emax at 24 h, 50 µM (PXR (NR1I2)) was 250% and the EC50 [1] was 1 µM.
With `Cc1nc(-c2cccc(F)c2O)n(CCc2ccccc2)c(=O)c1-c1cc(-c2ccccn2)c(C)s1` the Emax at 24 h, 50 µM (PXR (NR1I2)) was 9%, the EC50 [1] was > 50 µM and the AUC(0-t) at 24 h [19] was 29500 ng·h/mL. It also gave an AUC(0-t) at 240 h [20] of 41100 ng·h/mL, a Cmax [21] of 8900 ng/mL and a Cmax [22] of 12000 ng/mL.
For `Cc1nc(-c2cccc(F)c2O)n(CCc2ccccc2)c(=O)c1-c1ccc(CO)s1`, the Emax at 24 h, 50 µM (PXR (NR1I2)) was 31%, the EC50 [1] was 13 µM and the IC50 [23] was > 10 µM.
With `Cc1nc(-c2cccc(F)c2O)n(CCc2ccccc2)c(=O)c1-c1ccc(-c2ccccn2)s1` the Emax at 24 h, 50 µM (PXR (NR1I2)) was 36% and the EC50 [1] was 5 µM.
